Experimental data: the supplement of paper PMC13380429

How the values were obtained:
Conditions in all cases: 72 h
Caco-2 [1] = assay: cell viability relative to DMSO; higher = less toxic
Calu-3 [2] = assay: as above
HepG2 [3] = assay: as above
U2OS [4] = assay: as above
Caco-2 [5] = assay: relative viability EC50 (midpoint between 100% and the lowest measured viability); higher = less toxic
Calu-3 [6] = assay: as above
HepG2 [7] = assay: as above
U2OS [8] = assay: as above
Caco-2 [9] = assay: drug sensitivity score (DSS) for viability; higher = more toxic; extreme values may be limits of the assay
Calu-3 [10] = assay: as above
HepG2 [11] = assay: as above
U2OS [12] = assay: as above
Vero E6 [13] = assay: cell viability relative to DMSO; higher = less toxic
Vero E6 [14] = assay: drug sensitivity score (DSS) for viability; higher = more toxic; extreme values may be limits of the assay
Vero E6 [15] = assay: relative viability EC50 (midpoint between 100% and the lowest measured viability); higher = less toxic

Structure (SMILES) | cell viability (Caco-2 [1]; 1 nM) [%] | cell viability (Caco-2 [1]; 10 nM) [%] | cell viability (Caco-2 [1]; 100 nM) [%] | cell viability (Caco-2 [1]; 1000 nM) [%] | cell viability (Caco-2 [1]; 10000 nM) [%] | cell viability (Calu-3 [2]; 1 nM) [%] | cell viability (Calu-3 [2]; 10 nM) [%] | cell viability (Calu-3 [2]; 100 nM) [%] | cell viability (Calu-3 [2]; 1000 nM) [%] | cell viability (Calu-3 [2]; 10000 nM) [%] | cell viability (HepG2 [3]; 1 nM) [%] | cell viability (HepG2 [3]; 10 nM) [%] | cell viability (HepG2 [3]; 100 nM) [%] | cell viability (HepG2 [3]; 1000 nM) [%] | cell viability (HepG2 [3]; 10000 nM) [%] | cell viability (U2OS [4]; 1 nM) [%] | cell viability (U2OS [4]; 10 nM) [%] | cell viability (U2OS [4]; 100 nM) [%] | cell viability (U2OS [4]; 1000 nM) [%] | cell viability (U2OS [4]; 10000 nM) [%] | relative viability EC50 (Caco-2 [5]) [µM] | relative viability EC50 (Calu-3 [6]) [µM] | relative viability EC50 (HepG2 [7]) [µM] | relative viability EC50 (U2OS [8]) [µM] | drug sensitivity score (Caco-2 [9]) | drug sensitivity score (Calu-3 [10]) | drug sensitivity score (HepG2 [11]) | drug sensitivity score (U2OS [12]) | cell viability (Vero E6 [13]; 1 nM) [%] | cell viability (Vero E6 [13]; 10 nM) [%] | cell viability (Vero E6 [13]; 100 nM) [%] | cell viability (Vero E6 [13]; 1000 nM) [%] | cell viability (Vero E6 [13]; 10000 nM) [%] | drug sensitivity score (Vero E6 [14]) | relative viability EC50 (Vero E6 [15]) [µM]
O=C1O[C@H](CO)[C@@H](O)[C@H](O)[C@H]1O [gluconolactone] | 109 | 106 | 102 | 95.1 | 101 | 99.6 | 90.5 | 100 | 97.2 | 105 | 90.9 | 103 | 92.2 | 91.2 | 94.5 | 106 | 102 | 104 | 98.9 | 106 | > 10 | > 10 | > 10 | > 10 | 0 | 0 | 0 | 0 | – | – | – | – | – | – | –
Cc1cc(/C=C/C#N)cc(C)c1Nc1ccnc(Nc2ccc(C#N)cc2)n1 [rilpivirine] | 97.8 | 98 | 93.3 | 87.3 | 61.4 | 97 | 93.7 | 99.8 | 95.6 | 92.7 | 98.9 | 99.8 | 99.5 | 96.9 | 47.7 | 94.8 | 99.1 | 99.6 | 95.4 | 80.5 | – | > 10 | 2.69 | > 10 | 3.1 | 0 | 3.2 | 1.1 | 100 | 100 | 96.8 | 98.5 | 70.5 | 1.5 | –
COC(=O)C1=C(C)NC(C)=C(C(=O)OCC(C)C)C1c1ccccc1[N+](=O)[O-] (configuration not stated) [nisoldipine] | 98.2 | 109 | 99.1 | 93.8 | 63.1 | 97.6 | 106 | 107 | 94.6 | 103 | 100 | 98.7 | 104 | 92.4 | 42.6 | 101 | 106 | 102 | 99.4 | 51.1 | – | > 10 | 2.1 | – | 2.8 | 0 | 4.4 | 2.6 | 100 | 101 | 102 | 94.6 | 60.7 | 2.8 | –
O=C(O)c1cc(=O)c2c(OCC(O)COc3cccc4oc(C(=O)O)cc(=O)c34)cccc2o1 [cromoglicic-acid] | 97 | 100 | 98.6 | 102 | 92.3 | – | – | – | – | – | 101 | 95.3 | 104 | 105 | 101 | 96.4 | 99.4 | 98.4 | 103 | 96.9 | > 10 | – | > 10 | > 10 | 0 | – | 0 | 0 | 100 | 101 | 101 | 96.6 | 100 | 0 | > 10
O=C(Nc1ccc([N+](=O)[O-])cc1O)Nc1ccccc1Br | 98.6 | 103 | 102 | 77 | 40.5 | 102 | 98.2 | 88.4 | 108 | 59.3 | 89.9 | 101 | 89.7 | 92 | 32.5 | 98.3 | 99.6 | 96.9 | 87 | 36.6 | 1.2 | – | 2.19 | 1.72 | 6.4 | 1.6 | 5.1 | 5.6 | 101 | 98.3 | 94.5 | 85.7 | 34.8 | 5.9 | 1.66
CC(CNC(=O)c1cccnc1)NC(=O)c1cccnc1 (configuration not stated) [nicaraven] | 97.3 | 103 | 94.9 | 97.6 | 89.4 | – | – | – | – | – | 94.7 | 106 | 90.8 | 101 | 98.9 | 97 | 97.2 | 98.7 | 99.8 | 92.1 | > 10 | – | > 10 | > 10 | 0 | – | 0 | 0 | 93.8 | 99.1 | 101 | 97.3 | 97.7 | 0 | > 10
N[C@@H](CC(=O)Nc1ccc(Oc2cc(F)c(F)cc2Br)cc1)C(=O)O | 94.8 | 88.1 | 98.6 | 87 | 99 | – | – | – | – | – | 94.2 | 92.6 | 91.7 | 111 | 104 | 99 | 94.4 | 101 | 94.7 | 102 | > 10 | – | > 10 | > 10 | 0 | – | 0 | 0 | 91 | 98.3 | 95.1 | 101 | 105 | 0 | > 10
CCOP(=S)(OCC)Oc1cc(C)nc(C(C)C)n1 [dimpylate] | 102 | 95.4 | 103 | 93 | 93.2 | 106 | 100 | 99.3 | 97.7 | 96.3 | 92.9 | 104 | 106 | 101 | 96.8 | 104 | 102 | 102 | 97.9 | 99.2 | > 10 | > 10 | > 10 | > 10 | 0 | 0 | 0 | 0 | – | – | – | – | – | – | –
CCc1cc2c(cc1N1CCC(N3CCOCC3)CC1)C(C)(C)c1[nH]c3cc(C#N)ccc3c1C2=O [alectinib] | 98.7 | 96.8 | 110 | 103 | 106 | – | – | – | – | – | 101 | 99.9 | 104 | 100 | 75.9 | 102 | 100 | 102 | 95.9 | 102 | > 10 | – | > 10 | > 10 | 0 | – | 0.9 | 0 | 96 | 94.3 | 96.1 | 93.7 | 89 | 0 | > 10
COc1cccc(-c2cc(NCc3ccc4c(c3)OCO4)nc(N)n2)c1 [BML-284] | 104 | 93.4 | 102 | 62.4 | 46.6 | 104 | 92.9 | 102 | 66.9 | 62.4 | 97.7 | 97.2 | 93.9 | 52.9 | 30.5 | 92.8 | 97 | 95.8 | 49.8 | 27.7 | 0.707 | – | 0.572 | 0.59 | 7.3 | 5.8 | 9.8 | 10.3 | 102 | 99.9 | 101 | 29.8 | 27.6 | 12.8 | 0.349
COc1cc(OC)c(/C=C2/C(=O)Nc3ccccc32)c(OC)c1 [IC261] | 96.9 | 92.9 | 95.1 | 90.5 | 57.6 | 90.1 | 97 | 95.9 | 96.7 | 61.8 | 97.5 | 102 | 108 | 92.9 | 37.1 | 95 | 99.8 | 98.5 | 86 | 41.6 | – | – | 2.24 | 1.58 | 3.7 | 2.4 | 4.6 | 5.4 | 99 | 99.2 | 102 | 69.2 | 39.1 | 7.2 | 0.991
C=CCN1CCc2cc(O)c(O)cc2[C@H](c2ccccc2)C1 | 95.1 | 91.8 | 86.5 | 99.5 | 79.4 | 89.8 | 92 | 103 | 103 | 99 | 100 | 93.3 | 105 | 92.5 | 86.9 | 99.7 | 99.3 | 96.9 | 102 | 92.8 | > 10 | > 10 | > 10 | > 10 | 0.7 | 0 | 0.5 | 0 | – | – | – | – | – | – | –
